“Also recorded” adds a separate entry of the source. Where two headings read alike, the source gives them in different places.
Columns and labels:
USSR H1N1 virus [1] = assay: microbe, parasite or virus in culture; assay type: cell-based, influenza A virus
USSR H1N1 virus [2] = assay: microbe, parasite or virus in culture; assay type: cell-based, influenza A virus; remark: listed apart in the source
[3] = tested on: extracellular Ca^2+ influx; assay: Fluo-8 intracellular Ca2+ monitoring assay (NPTr cells; TG also in other cell types); assay type: cell-based, pig
pdm H1N1 virus = assay type: cell-based, influenza A virus
USSR H1N1 virus [4] = assay type: cell-based, influenza A virus
USSR H1N1 virus [5] = assay type: cell-based, influenza A virus; remark: listed apart in the source
[6] = tested on: RSV (A2 strain, ATCC VR-1540); assay: RSV production from primed HEp2 cells (immuno-detection of RSV); assay type: cell-based, human respiratory syncytial virus
Description: (§1) Spun supernatants were collected to infect HEp2 cells for 24 h for immuno-detection of RSV. TG doses used to prime HEp2 cells were non-toxic. 30 min TG treated cells were rinsed, cultured overnight and subjected to cell viability assays (CellTiter-Glo® Luminescent Cell Viability Assay kit, Promega. Results are shown in FIG. 22.
Spun supernatants from infected samples were collected to infect HEp2 cells for 24 h for immuno-detection of RSV.
In further experiments, HEp2 cells were first infected with RSV at 0.1 MOI for 24 or 48 h followed by priming with TG or DMSO control for 30 min. Fresh media were used to replace TG containing media of 24 h infected cells; and supernatants collected earlier from 48 h infected cells were used to replace TG containing media of 48 h infected cells. All samples were infected for total period 72 h. Spun supernatants were collected to infect HEp2 cells for 24 h for RSV immuno-detection. DMSO controls were based on combined control supernatants from 24 and 48 h time points.

[7] = CellTiter-Glo luminescent cell viability assay, HEp2 cells; assay type: cell-based; conditions: human, HEp-2 cells
Description: as §1

DDIT3, HSPA5 and HSP90B1 = assay type: cell-based, pig; conditions: NPTr cells
RIG-I, OAS1 and PKR = assay type: cell-based, pig
viral NP and M1 protein = assay type: cell-based, influenza A virus; conditions: 0.5 μM TG (NPTr, myoblasts) or 0.005 μM TG (NHBE) 30 min, USSR H1N1, 24 h
NHBE cells = conditions: TG concentrations used for priming
influenza A virus = conditions: MDCK cells, 0.001 μM TG over 48 h of infection; cited from earlier work
in vitro [8] = conditions: human
in vitro [9] = conditions: pig
viral M-gene = assay type: cell-based, influenza A virus; conditions: NPTr cells

CC1=C2CC[C@@H](C)[C@H]2[C@H]2[C@@H](CC1)C2(C)C [(+)-ledene]
progeny virus output (USSR H1N1 virus [1]): dramatic reduction in progeny virus output; also recorded: reduced progeny virus output | USSR H1N1 virus production (USSR H1N1 virus [2]): reduced USSR H1N1 virus production like that of TG

Cc1nnsc1C(=O)Nc1ccc(-n2nc(C(F)(F)F)cc2C(F)(F)F)cc1 [BTP2, reference compound]
progeny virus release (USSR H1N1 virus [2]): small increase in progeny virus release

CC(=O)C1=C(O)[C@@H]2[C@H]3c4c[nH]c5cccc(c45)C[C@H]3C(C)(C)N2C1=O [CPA, Cyclopiazonic acid]
concentration from which Ca^2+ influx was detected [3]: ≥ 10 µM | reduction in ATP production (NPTr cells; 5 μM CPA 30 min, 24 h incubation): 8.3%

COc1ccc(OC)c(-c2ccc(NC(=O)c3ccncc3F)cc2)c1 [Synta66, reference compound]
progeny virus release (USSR H1N1 virus [2]): small increase in progeny virus release

C/C=C(/C)C(=O)O[C@H]1C(C)=C2[C@H]([C@@H]1OC(=O)CCCCCCC)[C@@](C)(OC(C)=O)C[C@H](OC(=O)CCC)[C@@]1(O)[C@H]2OC(=O)[C@@]1(C)O [TG, thapsigargin]
virus output (USSR H1N1 virus [1]): marked reduction in virus output | IC50 (USSR H1N1 virus [1]; Influenza A virus, H1N1, NHBE, read-out: USSR virus inhibitory concentration [IC50]): 0.00391 µM | progeny virus output (USSR H1N1 virus [1]; NHBE cells, 5 nM TG for 30 min): dramatic reduction in progeny virus output | selectivity index (CC50/IC50) (USSR H1N1 virus [1]; NHBE cells, USSR H1N1): 8572.89 | duration of the antiviral state (USSR H1N1 virus [2]): at least 24 h | virus output (USSR H1N1 virus [2]): marked reduction in virus output | IC50 (USSR H1N1 virus [2]; Influenza A virus, H1N1, read-out: IC50 (50% reduction of progeny virus)): 0.00712 µM | virus reduction (USSR H1N1 virus [2]; NPTr cells pre-primed with 0.1 μM TG for 30 min): 82% | virus reduction (USSR H1N1 virus [2]; NPTr cells pre-primed with 0.5 μM TG for 30 min): 93% | selectivity index (CC50/IC50) (USSR H1N1 virus [2]; NPTr cells, USSR H1N1): 7952.21 | virus production, TG before vs after an initial infection period of 6 h (pdm H1N1 virus; NPTr (0.5 μM, pdm H1N1), NHBE (0.01 μM, USSR H1N1), myoblasts (0.5 μM, USSR H1N1), 30 min): comparable reduction in virus production | duration of the antiviral state (USSR H1N1 virus [4]): at least 24 h | duration of the antiviral state (USSR H1N1 virus [5]): at least 24 h | virus output (USSR H1N1 virus [5]): marked reduction in virus output | duration of sustained anti-viral effect on RSV after priming ([6]; HEp2 cells, 30 min priming): over 48 h | RSV production, priming during infection ([6]; HEp2 cells, TG 30 min at 48 h post-infection): rapidly effective in blocking virus production | RSV production ([6]; HEp2 cells, TG at non-toxic levels 30 min before infection, RSV 0.1 MOI 3 days): blocks RSV production | selectivity index ([6]; HEp-2 cells, 3 d infection period): 1346.499 | IC50 ([6]; human respiratory syncytial virus, 72 h, HEp-2 cells, 3 d infection period): 0.0668 µM | CC50 [7]: 90 µM | Ca^2+ influx ([3]; brief TG exposure (10 min), primary porcine myoblasts, PTECs and NHBE cells, dependent on extracellular Ca^2+): modest Ca^2+ influx | expression of ER stress associated genes (DDIT3, HSPA5 and HSP90B1) (DDIT3, HSPA5 and HSP90B1; TG at non-toxic levels, porcine myoblasts and NHBE cells, dose-dependent): consistently elevated ER stress associated genes | expression of type I IFN associated genes (RIG-I, OAS1) in response to infection (RIG-I, OAS1 and PKR; TG priming before or during infection, different cell types): consistently increased the expression of type I IFN associated genes | viral NP and M1 protein (viral NP and M1 protein): no or only small reduction in viral NP and M1 protein | cytotoxic effect on cell viability (ATP production, caspase 3/7 activity) (NHBE cells): no cytotoxic effect on cell viability | cytotoxic effect on cell viability (ATP production, caspase 3/7 activity) (NPTr cells; NPTr cells, TG concentrations used for priming): no cytotoxic effect on cell viability | progeny influenza virus output (influenza A virus): increase progeny influenza virus output | CC50 (in vitro [8]): 33.5 µM | CC50 (in vitro [9]): 56.6 µM

C[C@@H]1CC[C@H]2[C@@H](C)C(=O)O[C@@H]3O[C@@]4(C)CC[C@@H]1[C@]32OO4 [artemisinin, reference compound]
USSR H1N1 virus production (USSR H1N1 virus [2]): reduced USSR H1N1 virus production like that of TG | progeny viral output (USSR H1N1 virus [2]): reduces progeny viral output | progeny viral output (pdm H1N1 virus): reduces progeny viral output | viral M-gene expression (viral M-gene; artemisinin 0.1 μM and 1.0 μM): without significant alteration in viral M-gene expression

C=C1C(=O)O[C@@H]2[C@H]3C(C)=CC(=O)C3=C(C)CC[C@@H]12 [dehydroleucodine]
progeny virus output (USSR H1N1 virus [1]): reduced progeny virus output

CC1=C2[C@H](/C=C(\C)C(=O)O)CC[C@@H](C)[C@H]2CC1 [valerenic acid]
USSR H1N1 virus production (USSR H1N1 virus [2]): reduced USSR H1N1 virus production like that of TG

Tunicamycin [reference compound]
virus production (USSR H1N1 virus [2]): only slightly reduced virus production | virus production relative to correspondingly infected TG primed cells (USSR H1N1 virus [2]; NPTr cells, USSR H1N1, tunicamycin primed vs TG 0.5 μM): 7.5 times | virus production relative to correspondingly infected TG primed cells (pdm H1N1 virus; NPTr cells, pdm H1N1, tunicamycin primed vs TG 0.5 μM): 2.8 times | Ca^2+ influx ([3]; tunicamycin at non-toxic doses): did not induce Ca^2+ influx | induction of ER stress associated genes, higher than by TG (DDIT3, HSPA5 and HSP90B1; tunicamycin 1.0 μg/ml vs TG 0.5 μM): 3 to 8.2 fold | expression of type I IFN associated genes (RIG-I, OAS1 and PKR) in response to infection (RIG-I, OAS1 and PKR; NPTr cells, tunicamycin primed): little change in the expression of type I IFN associated genes | viral M-gene expression (viral M-gene; tunicamycin primed): without reduction in viral M-gene expression | cell viability (NPTr cells; NPTr cells, tunicamycin 30 min, non-toxic doses): did not affect cell viability

dehydroleucodine
USSR H1N1 virus production (USSR H1N1 virus [2]): reduced USSR H1N1 virus production like that of TG
